Measured values taken from US11457629B2, “Heteroarylphenylaminoquinolines and analogues” (Bayer Aktiengesellschaft, priority 2017, dated 2022).
Like-named read-outs stand apart in the source and are kept apart here.

Legend:
Leptnosphaeria nodorum = test: Example D: Leptnosphaeria nodorum in vitro cell test; format: cell-based; settings: 144 h, read-out: efficacy (inhibition of fungal growth)
[1] = Log P by HPLC on reversed phase columns, method [a] (acidic range, 0.1% formic acid)
Description: In the following, measurement of Log P values was performed according to EEC directive 79/831 Annex V.A8 by HPLC (High Performance Liquid Chromatography) on reversed phase columns with the following methods: • ^[a]
If more than one Log P value is available within the same method, all the values are given and separated by “+”.
Calibration was done with straight-chain alkan2-ones (with 3 to 16 carbon atoms) with known Log P values (measurement of Log P values using retention times with linear interpolation between successive alkanones).

Pyricularia oryzae = test: microbe, parasite or virus in culture; format: cell-based; settings: 120 h, read-out: efficacy (inhibition of fungal growth)
[2] = tested on: Colletotrichum lindemuthianum; test: Example F: Colletotrichum lindemuthianum in vitro cell test; format: cell-based; settings: 144 h, 20 ppm of active ingredient, 6 days incubation, read-out: efficacy (inhibition of fungal growth)
[3] = 20 ppm of active ingredient, 6 days incubation
[4] = LogP, method [a] / Method A: LC-UV, acidic range
[5] = logP, HPLC on reversed phase columns, method [a]: acidic range

## CC(C)(C)[Si](C)(C)OCc1ccnn1-c1ccccc1Nc1cnc2ccccc2c1 [Example I-069, N-{2-[5-({[tert-butyl(dimethyl)silyl]oxy}methyl)-1H-pyrazol-1-yl]phenyl}quinolin-3-amine]
Leptnosphaeria nodorum; [3]
  inhibition at 20 ppm: 80 to 89%
[1]; [4]
  chromatographic logP: 4.92
[1]; [5]
  chromatographic logP: 4.92

## Cc1nc2ccccc2nc1Nc1cccc(F)c1-c1ccnn1C [Example I-083, N-[3-fluoro-2-(1-methyl-1H-pyrazol-5-yl)phenyl]-3-methylquinoxalin-2-amine]
Leptnosphaeria nodorum; [3]
  inhibition at 20 ppm: 90 to 100%
Pyricularia oryzae
  inhibition at 20 ppm: 90 to 100%
[2]
  inhibition at 20 ppm: 90 to 100%
[1]; [4]
  chromatographic logP: 2.82
[1]; [5]
  chromatographic logP: 2.82

## CC(C)(C)OC(=O)N(c1cnc2ccccc2c1)c1ccccc1-n1nccc1C(=O)O [XX-01, 1-{2-[(tert-butoxycarbonyl)(quinolin-3-yl)amino]phenyl}-1H-pyrazole-5-carboxylic acid]
[1]; [4]
  chromatographic logP: 2.42

## OCc1ccnn1-c1c(F)cccc1Br [IXb-01, [1-(2-bromo-6-fluorophenyl)-1H-pyrazol-5-yl]methanol]
[1]; [4]
  chromatographic logP: 1.27

## Cc1nc2c(F)c(F)ccc2cc1Nc1ccccc1-c1ccn(C(C)C)n1 [Example I-043, 7,8-difluoro-N-[2-(1-isopropylpyrazol-3-yl)phenyl]-2-methyl-quinolin-3-amine]
Leptnosphaeria nodorum
  inhibition at 20 ppm: 80 to 89%
Pyricularia oryzae
  inhibition at 20 ppm: 90 to 100%
[1]; [5]
  chromatographic logP: 5

## CC(C)(C)OC(=O)N(c1cnc2ccccc2c1)c1cccc(F)c1-n1nccc1C(C)(C)O [XX-11, tert-butyl {3-fluoro-2-[5-(2-hydroxypropan-2-yl)-1H-pyrazol-1-yl]phenyl}quinolin-3-ylcarbamate]
[1]; [4]
  chromatographic logP: 3.33

## C=C(C)c1ccnn1-c1ccccc1N(C(=O)OC(C)(C)C)c1cnc2ccccc2c1 [XX-04, tert-butyl {2-[5-(prop-1-en-2-yl)-1H-pyrazol-1-yl]phenyl}quinolin-3-ylcarbamate]
[1]; [4]
  chromatographic logP: 3.67

## COC(=O)c1ccnn1-c1ccccc1N(C(=O)OC(C)(C)C)c1cnc2ccccc2c1 [XX-05, Methyl 1-(2-(tert-butoxycarbonyl(quinolin-3-yl)amino)phenyl)-1H-pyrazole-5-carboxylate]
[1]; [4]
  chromatographic logP: 3.19

## CC(C)(C)OC(=O)N(c1cnc2ccccc2c1)c1cccc(F)c1-n1nccc1C=O [XX-10, tert-butyl [3-fluoro-2-(5-formyl-1H-pyrazol-1-yl)phenyl]quinolin-3-ylcarbamate]
[1]; [4]
  chromatographic logP: 3.24

## COC(=O)c1ccnn1-c1c(F)cccc1N(C(=O)OC(C)(C)C)c1cnc2ccccc2c1 [XX-03, methyl 1-{2-[(tert-butoxycarbonyl)(quinolin-3-yl)amino]-6-fluorophenyl}-1H-pyrazole-5-carboxylate]
[1]; [4]
  chromatographic logP: 3.36

## CC(C)(C)OC(=O)N(c1cnc2ccccc2c1)c1ccccc1-n1nccc1CO [XX-12, tert-butyl {2-[5-(hydroxymethyl)-1H-pyrazol-1-yl]phenyl}quinolin-3-ylcarbamate]
[1]; [4]
  chromatographic logP: 2.35

## CCn1nccc1-c1c(F)cccc1Br [IXa-04, 5-(2-bromo-6-fluorophenyl)-1-ethyl-1H-pyrazole]
[1]; [4]
  chromatographic logP: 2.71

## CC(C)(C)[Si](C)(C)OCc1ccnn1-c1c(F)cccc1Br [IXb-02, 1-(2-bromo-6-fluorophenyl)-5-({[tert-butyl(dimethyl)silyl]oxy}methyl)-1H-pyrazole]
[1]; [4]
  chromatographic logP: 4.96

## CC1(C)OB(c2ccccc2Nc2cnc3ccccc3c2)OC1(C)C [VI-02, N-[2-(4,4,5,5-tetramethyl-1,3,2-dioxaborolan-2-yl)phenyl]quinolin-3-amine]
[1]; [4]
  chromatographic logP: 4.29

## Fc1cccc(Br)c1-c1ccnn1CCc1ccccc1 [IXa-05, 5-(2-bromo-6-fluorophenyl)-1-(2-phenylethyl)-1H-pyrazole]
[1]; [4]
  chromatographic logP: 3.83

## CC(C)(C)OC(=O)N(c1cnc2ccccc2c1)c1ccccc1-n1nccc1C=O [XX-06, tert-butyl [2-(5-formyl-1H-pyrazol-1-yl)phenyl]quinolin-3-ylcarbamate]
[1]; [4]
  chromatographic logP: 3.06

## Cn1nccc1-c1c(F)cccc1Br [IXa-01, 5-(2-bromo-6-fluorophenyl)-1-methyl-1H-pyrazole]
[1]; [4]
  chromatographic logP: 2.4

## CC(C)(C)OC(=O)N(c1cnc2ccccc2c1)c1cccc(F)c1-n1nccc1CO [XX-08, tert-butyl {3-fluoro-2-[5-(hydroxymethyl)-1H-pyrazol-1-yl]phenyl}quinolin-3-ylcarbamate]
[1]; [4]
  chromatographic logP: 2.47

## CC(C)(C)[Si](C)(C)OCc1ccnn1-c1c(N)cccc1F [IXb-04, 2-[5-({[tert-butyl(dimethyl)silyl]oxy}methyl)-1H-pyrazol-1-yl]-3-fluoroaniline]
[1]; [4]
  chromatographic logP: 4.1

## Fc1cccc2cc(Nc3ccccc3Br)cnc12 [N-(2-bromophenyl)-8-fluoro-quinolin-3-amine]
[1]; [4]
  chromatographic logP: 3.27

## COC(=O)c1ccn(-c2ccccc2Nc2cnc3ccccc3c2)n1 [Example I-062, methyl 1-[2-(3-quinolylamino)phenyl]pyrazole-3-carboxylate]
[1]; [4]
  chromatographic logP: 2.16
[1]; [5]
  chromatographic logP: 2.16

## CC(C)(C)n1nccc1-c1c(F)cccc1Br [IXa-03, 5-(2-bromo-6-fluorophenyl)-1-tert-butyl-1H-pyrazole]
[1]; [4]
  chromatographic logP: 3.61

## COC(=O)c1ccnn1-c1ccccc1Nc1cnc2ccccc2c1 [Example I-064, methyl 1-[2-(quinolin-3-ylamino)phenyl]-1H-pyrazole-5-carboxylate]
Leptnosphaeria nodorum; [3]
  inhibition at 20 ppm: 70 to 79%
[2]
  inhibition at 20 ppm: 80 to 89%
[1]; [4]
  chromatographic logP: 2.02
[1]; [5]
  chromatographic logP: 2.02

## Cc1nc2c(F)c(F)ccc2cc1N(C)c1ccccc1-c1ccn(C(C)C)n1 [Example I-046, 7,8-difluoro-N-[2-(1-isopropylpyrazol-3-yl)phenyl]-N,2-dimethyl-quinolin-3-amine]
Pyricularia oryzae
  inhibition at 20 ppm: 80 to 89%
[1]; [4]
  chromatographic logP: 4.36
[1]; [5]
  chromatographic logP: 4.36

## COC(=O)c1ccnn1-c1c(F)cccc1Br [IXb-03, methyl 1-(2-bromo-6-fluorophenyl)-1H-pyrazole-5-carboxylate]
[1]; [4]
  chromatographic logP: 2.53

## CC1(C)OB(c2ccccc2Nc2cnc3c(F)cccc3c2)OC1(C)C [VI-01, 8-fluoro-N-[2-(4,4,5,5-tetramethyl-1,3,2-dioxaborolan-2-yl)phenyl]quinolin-3-amine]
[1]; [4]
  chromatographic logP: 4.87

## CC1(C)OB(c2ccccc2Cc2cnc3ccccc3c2)OC1(C)C [VI-03, 3-[2-(4,4,5,5-tetramethyl-1,3,2-dioxaborolan-2-yl)benzyl]quinoline]
[1]; [4]
  chromatographic logP: 3.39

## CC(C)(C)OC(=O)N(c1cnc2ccccc2c1)c1ccccc1-n1nccc1CO[Si](C)(C)C(C)(C)C [XX-07, tert-butyl {2-[5-({[tert-butyl(dimethyl)silyl]oxy}methyl)-1H-pyrazol-1-yl]phenyl}quinolin-3-ylcarbamate]
[1]; [4]
  chromatographic logP: 5.84

## CC(C)n1nccc1-c1c(F)cccc1Br [IXa-02, 5-(2-bromo-6-fluorophenyl)-1-isopropyl-1H-pyrazole]
[1]; [4]
  chromatographic logP: 3.09

## CC(C)(C)OC(=O)N(c1cnc2ccccc2c1)c1cccc(F)c1-n1nccc1CO[Si](C)(C)C(C)(C)C [XX-09, tert-butyl {2-[5-({[tert-butyl(dimethyl)silyl]oxy}methyl)-1H-pyrazol-1-yl]-3-fluorophenyl}quinolin-3-ylcarbamate]
[1]; [4]
  chromatographic logP: 5.8

## CC(C)(C)OC(=O)N(c1cnc2ccccc2c1)c1cccc(F)c1-n1nccc1C(=O)O [XX-02, 1-{2-[(tert-butoxycarbonyl)(quinolin-3-yl)amino]-6-fluorophenyl}-1H-pyrazole-5-carboxylic acid]
[1]; [4]
  chromatographic logP: 2.62
